Common to all, as to assay: Kinase panel study
Holding throughout (format): biochemical
Conditions in all cases: read-out: Percentage of inhibition; for inhibition at 1 µM: 1000nM; for inhibition at 10 µM: 10000nM

For one assay, the target named is T1, PEAK1 (Homo sapiens, UniProt Q9H792).
T1 construct: purchased Thermo Fisher Scientific
Put shortly: (§1)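 In vitro, kinase panel; ZLyte or Adapta SOP; single-concentration testing (1 or 10 µM); output = % inhibition, plus IC50 in panel.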

In a further assay the target is T2, PRKCI (PKC iota) (Homo sapiens, UniProt P41743).
T2 construct: purchased Thermo Fisher Scientific
T2 sequence (P41743 1-596): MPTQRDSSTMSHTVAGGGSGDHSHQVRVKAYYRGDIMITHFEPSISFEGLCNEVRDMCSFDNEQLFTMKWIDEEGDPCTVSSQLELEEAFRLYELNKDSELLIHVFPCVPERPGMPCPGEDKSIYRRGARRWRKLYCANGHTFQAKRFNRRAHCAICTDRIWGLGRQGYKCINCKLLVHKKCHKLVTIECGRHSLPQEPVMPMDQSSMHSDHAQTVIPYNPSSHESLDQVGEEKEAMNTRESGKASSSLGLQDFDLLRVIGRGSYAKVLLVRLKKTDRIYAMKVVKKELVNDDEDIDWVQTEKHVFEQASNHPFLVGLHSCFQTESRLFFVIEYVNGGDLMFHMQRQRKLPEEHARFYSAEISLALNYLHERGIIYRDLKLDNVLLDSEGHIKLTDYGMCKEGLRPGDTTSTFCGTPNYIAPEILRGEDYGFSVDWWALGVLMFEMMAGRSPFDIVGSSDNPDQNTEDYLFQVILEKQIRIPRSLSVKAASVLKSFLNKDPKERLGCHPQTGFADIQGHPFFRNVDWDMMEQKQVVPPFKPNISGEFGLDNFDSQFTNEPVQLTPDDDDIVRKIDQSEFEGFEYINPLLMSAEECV
Put shortly: as §1

The target in the next assay is T3, AMPK (A1/B2/G2) (Homo sapiens, UniProt Q13131).
T3 construct: purchased Thermo Fisher Scientific
The gist of the method:
as §1

The target of a further assay is T4, ADRBK2 (GRK3) (Homo sapiens, UniProt P35626).
T4 construct: purchased Thermo Fisher Scientific
T4 sequence (P35626 1-688): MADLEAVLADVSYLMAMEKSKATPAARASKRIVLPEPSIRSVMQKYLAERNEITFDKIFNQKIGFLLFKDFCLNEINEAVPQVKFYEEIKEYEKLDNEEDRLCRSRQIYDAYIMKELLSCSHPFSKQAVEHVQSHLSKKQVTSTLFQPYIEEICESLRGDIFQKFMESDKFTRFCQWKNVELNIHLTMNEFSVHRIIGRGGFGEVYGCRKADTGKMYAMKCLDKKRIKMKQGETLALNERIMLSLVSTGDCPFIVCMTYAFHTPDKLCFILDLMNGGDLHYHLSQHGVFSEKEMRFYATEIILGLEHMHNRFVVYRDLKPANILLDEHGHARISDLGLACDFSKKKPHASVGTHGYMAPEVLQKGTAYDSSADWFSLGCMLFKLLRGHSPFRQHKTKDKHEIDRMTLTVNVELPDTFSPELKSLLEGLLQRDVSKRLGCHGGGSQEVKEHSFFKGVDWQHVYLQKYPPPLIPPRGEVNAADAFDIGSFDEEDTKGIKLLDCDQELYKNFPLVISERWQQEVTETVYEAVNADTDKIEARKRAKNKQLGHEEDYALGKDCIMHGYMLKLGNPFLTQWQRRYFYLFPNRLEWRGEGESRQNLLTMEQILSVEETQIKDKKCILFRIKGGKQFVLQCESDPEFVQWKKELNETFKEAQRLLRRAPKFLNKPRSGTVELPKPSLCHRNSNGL
Put shortly:
as §1

For a further assay, the target named is T5, MELK (Homo sapiens, UniProt Q14680).
T5 construct: purchased Thermo Fisher Scientific
The gist of the method: as §1

The target in a further assay is T6, SPHK2 (Homo sapiens, UniProt Q9NRA0).
T6 construct: purchased Thermo Fisher Scientific
T6 sequence (Q9NRA0 1-654): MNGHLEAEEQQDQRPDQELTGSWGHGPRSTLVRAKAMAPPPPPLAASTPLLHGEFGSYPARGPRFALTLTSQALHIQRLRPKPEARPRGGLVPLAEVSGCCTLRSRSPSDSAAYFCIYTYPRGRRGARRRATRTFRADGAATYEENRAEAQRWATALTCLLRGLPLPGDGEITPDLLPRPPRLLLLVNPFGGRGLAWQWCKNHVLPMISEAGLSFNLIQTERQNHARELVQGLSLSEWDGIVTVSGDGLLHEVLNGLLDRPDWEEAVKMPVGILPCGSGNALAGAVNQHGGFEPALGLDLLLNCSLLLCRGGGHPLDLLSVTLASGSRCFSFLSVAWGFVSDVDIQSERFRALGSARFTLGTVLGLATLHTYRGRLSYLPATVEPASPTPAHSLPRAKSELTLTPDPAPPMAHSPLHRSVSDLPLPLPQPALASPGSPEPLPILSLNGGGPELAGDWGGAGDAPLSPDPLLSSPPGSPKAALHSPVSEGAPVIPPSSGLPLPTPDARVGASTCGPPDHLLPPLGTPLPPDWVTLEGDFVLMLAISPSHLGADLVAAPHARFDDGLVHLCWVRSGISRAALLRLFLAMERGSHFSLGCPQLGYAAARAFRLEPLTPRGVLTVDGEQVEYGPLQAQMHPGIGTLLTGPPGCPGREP
Put shortly:
as §1

Molecules are shown by their SMILES.

T1 sequence (Q9H792 whole entry): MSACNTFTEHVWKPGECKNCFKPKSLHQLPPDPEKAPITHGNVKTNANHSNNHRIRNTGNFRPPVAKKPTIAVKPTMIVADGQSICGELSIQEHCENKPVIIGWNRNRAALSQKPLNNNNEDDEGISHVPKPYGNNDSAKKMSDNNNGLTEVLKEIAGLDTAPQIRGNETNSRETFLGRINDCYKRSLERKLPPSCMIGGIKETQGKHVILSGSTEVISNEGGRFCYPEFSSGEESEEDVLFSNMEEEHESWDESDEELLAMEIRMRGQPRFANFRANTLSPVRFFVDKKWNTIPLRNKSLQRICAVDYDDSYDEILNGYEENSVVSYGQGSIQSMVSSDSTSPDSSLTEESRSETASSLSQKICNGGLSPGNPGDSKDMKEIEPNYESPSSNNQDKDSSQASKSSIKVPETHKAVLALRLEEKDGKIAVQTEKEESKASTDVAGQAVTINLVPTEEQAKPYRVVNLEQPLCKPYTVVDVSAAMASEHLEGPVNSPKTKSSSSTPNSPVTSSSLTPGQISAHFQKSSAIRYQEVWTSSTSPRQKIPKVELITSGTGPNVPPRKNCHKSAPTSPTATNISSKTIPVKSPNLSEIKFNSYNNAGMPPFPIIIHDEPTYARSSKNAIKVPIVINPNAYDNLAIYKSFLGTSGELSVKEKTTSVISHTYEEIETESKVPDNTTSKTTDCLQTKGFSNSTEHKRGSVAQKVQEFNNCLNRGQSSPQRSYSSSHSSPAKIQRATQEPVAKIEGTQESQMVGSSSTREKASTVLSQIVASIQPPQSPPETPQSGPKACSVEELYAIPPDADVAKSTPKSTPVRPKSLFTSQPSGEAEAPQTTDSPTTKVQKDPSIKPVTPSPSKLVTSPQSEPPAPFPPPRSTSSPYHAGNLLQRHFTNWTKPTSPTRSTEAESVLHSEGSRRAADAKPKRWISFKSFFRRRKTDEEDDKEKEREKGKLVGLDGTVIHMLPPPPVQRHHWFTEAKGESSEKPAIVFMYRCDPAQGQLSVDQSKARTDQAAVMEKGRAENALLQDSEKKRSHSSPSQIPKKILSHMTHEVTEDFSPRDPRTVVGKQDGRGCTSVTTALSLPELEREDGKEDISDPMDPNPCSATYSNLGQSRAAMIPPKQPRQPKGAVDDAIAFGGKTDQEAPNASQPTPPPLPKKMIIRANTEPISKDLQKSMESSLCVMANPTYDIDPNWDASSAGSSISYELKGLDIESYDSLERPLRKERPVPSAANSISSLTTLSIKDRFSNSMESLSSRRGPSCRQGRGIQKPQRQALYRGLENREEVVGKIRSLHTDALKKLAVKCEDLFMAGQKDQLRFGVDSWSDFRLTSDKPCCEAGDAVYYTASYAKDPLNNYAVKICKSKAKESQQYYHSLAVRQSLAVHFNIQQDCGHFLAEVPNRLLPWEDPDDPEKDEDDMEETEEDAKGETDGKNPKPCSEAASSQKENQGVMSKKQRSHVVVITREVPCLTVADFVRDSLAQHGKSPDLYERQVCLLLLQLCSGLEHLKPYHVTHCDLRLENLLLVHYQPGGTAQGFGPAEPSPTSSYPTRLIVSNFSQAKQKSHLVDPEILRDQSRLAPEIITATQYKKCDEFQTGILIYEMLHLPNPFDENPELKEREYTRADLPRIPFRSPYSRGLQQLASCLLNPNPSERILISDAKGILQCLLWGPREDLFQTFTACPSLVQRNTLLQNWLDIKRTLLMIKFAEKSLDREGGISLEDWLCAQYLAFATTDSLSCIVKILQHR
T5 sequence (Q14680 whole entry): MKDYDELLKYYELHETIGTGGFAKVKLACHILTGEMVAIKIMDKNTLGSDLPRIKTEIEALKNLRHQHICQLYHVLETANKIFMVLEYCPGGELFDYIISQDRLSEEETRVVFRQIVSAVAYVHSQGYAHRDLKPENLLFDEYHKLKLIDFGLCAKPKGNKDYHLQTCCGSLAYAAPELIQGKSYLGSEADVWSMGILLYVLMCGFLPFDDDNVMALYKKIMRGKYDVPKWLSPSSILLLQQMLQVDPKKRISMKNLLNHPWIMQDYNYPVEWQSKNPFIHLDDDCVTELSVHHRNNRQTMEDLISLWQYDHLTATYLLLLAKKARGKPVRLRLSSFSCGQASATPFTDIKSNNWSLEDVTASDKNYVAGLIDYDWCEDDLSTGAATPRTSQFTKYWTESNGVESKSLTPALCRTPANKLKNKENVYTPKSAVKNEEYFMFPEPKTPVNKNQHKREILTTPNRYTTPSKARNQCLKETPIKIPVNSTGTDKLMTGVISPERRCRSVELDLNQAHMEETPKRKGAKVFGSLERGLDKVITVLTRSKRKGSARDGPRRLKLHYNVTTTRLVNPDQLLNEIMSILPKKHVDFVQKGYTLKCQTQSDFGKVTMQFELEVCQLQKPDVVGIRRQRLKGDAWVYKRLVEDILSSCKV
T3 sequence (Q13131 whole entry): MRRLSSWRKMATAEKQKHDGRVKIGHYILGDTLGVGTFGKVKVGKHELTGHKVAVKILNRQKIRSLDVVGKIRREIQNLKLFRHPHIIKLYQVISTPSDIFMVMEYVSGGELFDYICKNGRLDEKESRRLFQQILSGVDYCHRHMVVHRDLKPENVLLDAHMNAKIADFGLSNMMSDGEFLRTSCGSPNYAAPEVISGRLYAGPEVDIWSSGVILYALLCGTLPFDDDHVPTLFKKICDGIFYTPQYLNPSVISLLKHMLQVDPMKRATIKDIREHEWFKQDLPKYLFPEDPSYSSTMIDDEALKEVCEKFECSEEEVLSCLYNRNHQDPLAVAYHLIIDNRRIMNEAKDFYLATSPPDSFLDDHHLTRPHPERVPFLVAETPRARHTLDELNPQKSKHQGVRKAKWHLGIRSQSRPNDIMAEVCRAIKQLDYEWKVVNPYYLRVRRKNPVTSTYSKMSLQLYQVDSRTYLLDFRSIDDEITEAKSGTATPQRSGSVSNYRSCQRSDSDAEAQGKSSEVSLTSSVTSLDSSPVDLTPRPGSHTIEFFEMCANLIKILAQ
T3 sequence (O43741 whole entry partner): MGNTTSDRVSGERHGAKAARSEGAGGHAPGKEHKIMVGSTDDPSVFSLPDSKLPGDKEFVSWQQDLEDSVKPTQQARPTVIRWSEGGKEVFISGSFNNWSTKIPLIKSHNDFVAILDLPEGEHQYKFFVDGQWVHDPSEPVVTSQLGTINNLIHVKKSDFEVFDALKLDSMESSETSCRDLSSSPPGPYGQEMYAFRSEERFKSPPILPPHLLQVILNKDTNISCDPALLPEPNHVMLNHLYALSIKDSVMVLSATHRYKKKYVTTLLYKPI
T3 sequence (Q9UGJ0 whole entry partner): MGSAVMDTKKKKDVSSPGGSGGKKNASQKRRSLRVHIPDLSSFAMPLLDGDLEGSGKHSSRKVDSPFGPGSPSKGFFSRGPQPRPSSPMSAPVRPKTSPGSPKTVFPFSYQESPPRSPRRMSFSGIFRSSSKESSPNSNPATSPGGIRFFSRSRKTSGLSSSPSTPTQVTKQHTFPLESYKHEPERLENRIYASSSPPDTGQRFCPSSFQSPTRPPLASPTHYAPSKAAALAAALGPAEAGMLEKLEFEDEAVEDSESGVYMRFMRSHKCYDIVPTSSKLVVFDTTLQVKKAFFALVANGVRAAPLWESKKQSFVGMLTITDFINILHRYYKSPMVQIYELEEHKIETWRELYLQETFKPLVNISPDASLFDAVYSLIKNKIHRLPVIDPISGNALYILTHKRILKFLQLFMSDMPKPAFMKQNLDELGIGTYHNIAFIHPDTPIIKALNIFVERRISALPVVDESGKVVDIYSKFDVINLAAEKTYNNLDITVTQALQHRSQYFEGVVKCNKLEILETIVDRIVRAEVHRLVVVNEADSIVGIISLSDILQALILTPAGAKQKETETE

`COc1ccc2c(c1OC)c(=O)n1c3ccc(O)cc3c3ccnc2c31` [MW01, 5-Hydroxy-10,11-dimethoxy-9H-benzo[c]indolo[3,2,1-ij][1,5]naphthyridin-9-one]: the inhibition at 1 µM was -1% at PEAK1; 4% on PRKCI (PKC iota); -6% on AMPK (A1/B2/G2); 0% at ADRBK2 (GRK3); 26% on MELK; -16% on SPHK2. Also, the inhibition at 10 µM on PEAK1 was 16%; on PRKCI (PKC iota), -8%; on AMPK (A1/B2/G2), 5%; on ADRBK2 (GRK3), 5%; on MELK, 54%; at SPHK2, -8%.
In the case of `COc1ccc2cc3c(N)nn(C(=O)c4cccc(N(C)C)c4)c3nc2c1` [MW05, (3-Amino-7-methoxypyrazolo[3,4-b]quinolin-1-yl)-[3-(dimethylamino)phenyl]methanone], the inhibition at 1 µM on PEAK1 was 2%; on PRKCI (PKC iota), 20%; at AMPK (A1/B2/G2), -10%; on ADRBK2 (GRK3), 2%; on MELK, 28%; on SPHK2 it was -7%. The inhibition at 10 µM is 0% at PEAK1; 6% at PRKCI (PKC iota); 4% at AMPK (A1/B2/G2); -3% on ADRBK2 (GRK3); 48% on MELK; -4% on SPHK2.

By inhibition is commonly meant the drop in the measured response relative to a control, in per cent.

Values taken from EP4467141A1, “PYRAZOLO-QUINOLINES AS SELECTIVE INHIBITORS OF GENOTOXIC STRESS-INDUCED IKK/NF- KB PATHWAYS FOR CANCER THERAPY” (Max-Delbrück-Centrum für Molekulare Medizin in der …, priority 2023, dated 2024).
